This passage reports Ki results from patent publication US11034692B1 (Genentech, Inc., priority 2017, dated 2021).

In test [1] the target is HPK1 (Homo sapiens, UniProt Q92918). The test can be described thus: HPK1 Lantha Binding Assay ("Lanth"). As to conditions: Table B1-1, read-out: HPK1 Ki (μM) (Lanth). The procedure, abridged:
(§1)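 TR-FRET tracer displacement with 2 nM GST-tagged kinase, 2 nM Eu-anti-GST antibody and 15 nM Tracer222 at 23 C. Enzyme–antibody preincubated 1 h with compound, then tracer added for 1 h; 340 nm excitation, 615/665 nm emission. Ki from Morrison fit over an 11-point 5-fold dilution.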

The target in test [2] is HPK1. In words: HPK1 Lantha Binding Assay ("Lanth"). As to conditions: Table B1-2, read-out: HPK1 Ki, L = Lanth. Put shortly: as §1

Chain of HPK1 (Homo sapiens, UniProt Q92918) (Q92918 whole entry, looked up): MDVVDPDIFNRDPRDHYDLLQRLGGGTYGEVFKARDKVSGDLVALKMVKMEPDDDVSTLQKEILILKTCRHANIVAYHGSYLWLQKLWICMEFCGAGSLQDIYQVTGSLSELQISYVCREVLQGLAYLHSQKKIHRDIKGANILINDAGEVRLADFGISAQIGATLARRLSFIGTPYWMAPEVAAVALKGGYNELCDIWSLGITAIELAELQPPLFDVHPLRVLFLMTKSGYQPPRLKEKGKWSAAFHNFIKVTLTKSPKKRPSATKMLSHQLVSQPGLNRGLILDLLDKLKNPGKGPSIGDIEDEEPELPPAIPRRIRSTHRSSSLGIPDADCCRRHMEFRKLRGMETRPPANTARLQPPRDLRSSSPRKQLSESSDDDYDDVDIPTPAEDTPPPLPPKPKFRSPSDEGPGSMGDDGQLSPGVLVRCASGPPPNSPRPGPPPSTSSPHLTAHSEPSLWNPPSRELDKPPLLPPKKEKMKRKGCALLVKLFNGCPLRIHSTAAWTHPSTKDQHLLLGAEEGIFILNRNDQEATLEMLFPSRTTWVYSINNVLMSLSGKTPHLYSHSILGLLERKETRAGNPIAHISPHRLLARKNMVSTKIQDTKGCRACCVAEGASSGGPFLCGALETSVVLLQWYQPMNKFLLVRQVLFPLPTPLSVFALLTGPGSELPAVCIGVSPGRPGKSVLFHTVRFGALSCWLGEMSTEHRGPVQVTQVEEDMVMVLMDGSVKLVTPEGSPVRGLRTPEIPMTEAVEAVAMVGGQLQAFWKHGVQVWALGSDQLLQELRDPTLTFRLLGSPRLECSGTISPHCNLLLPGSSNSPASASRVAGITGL

Turning to `Cc1c(-c2cc3cc(NC(=O)[C@@H]4C[C@@H]4F)ncc3c(N)n2)cnn1C` (racemic) [Compound 2, (±)-cis-N-(8-amino-6-(1,5-dimethyl-1H-pyrazol-4-yl)-2,7-naphthyridin-3-yl)-2-fluorocyclopropanecarboxamide], on HPK1 [1], the Ki worked out at 0.00156 µM.
Same read-out and setting: next, `Cc1nn(C)c(C)c1-c1cc2cc(NC(=O)[C@@H]3C[C@@H]3F)ncc2c(N)n1` (racemic) [Compound 3, (±)-cis-N-(8-amino-6-(1,3,5-trimethyl-1H-pyrazol-4-yl)-2,7-naphthyridin-3-yl)-2-fluorocyclopropanecarboxamide]: 0.00514 µM; `Cn1cc(-c2cc3cc(NC(=O)[C@H]4C[C@@H]4F)ncc3c(N)n2)cn1` (racemic) [Compound 8, trans-N-(8-amino-6-(1-methyl-1H-pyrazol-4-yl)-2,7-naphthyridin-3-yl)-2-fluorocyclopropanecarboxamide]: 0.00164 µM; `Cc1cc(N)ncc1-c1cc2cc(NC(=O)[C@@H]3C[C@@H]3F)ncc2c(N)n1` (racemic) [Compound 16, (±)-cis-N-(8-amino-6-(6-amino-4-methylpyridin-3-yl)-2,7-naphthyridin-3-yl)-2-fluorocyclopropanecarboxamide]: 0.00721 µM.
In the case of `N#C[C@@H]1C[C@@H]1C(=O)Nc1cc2cc(-c3cncc4[nH]ccc34)nc(N)c2cn1` (racemic) [Compound 21, (±)-cis-N-(8-amino-6-(1H-pyrrolo[2,3-c]pyridin-4-yl)-2,7-naphthyridin-3-yl)-2-cyanocyclopropanecarboxamide], the Ki on HPK1 [1] worked out at 0.00276 µM.
The same measure, in the same setting: next, `CCc1ccncc1-c1cc2cc(NC(=O)NC(C)C(N)=O)ncc2c(N)n1` (racemic) [Compound 34, 2-[[8-amino-6-(4-ethyl-3-pyridyl)-2,7-naphthyridin-3-yl]carbamoylamino]propanamide]: 0.034 µM; `Cc1ccncc1-c1cc2cc(NC(=O)C(C)C#N)ncc2c(N)n1` (racemic) [Compound 38, N-(8-amino-6-(4-methylpyridin-3-yl)-2,7-naphthyridin-3-yl)-2-cyanopropanamide]: 0.0484 µM; `Cc1ccncc1-c1cc2cc(NC(=O)[C@@H]3C[C@H]3C#N)ncc2c(N)n1` (racemic) [Compound 43, trans-N-(8-amino-6-(4-methylpyridin-3-yl)-2,7-naphthyridin-3-yl)-2-cyanocyclopropanecarboxamide]: 0.00205 µM.
On the same count and under the same terms, the figure for `Nc1nc(-c2cnccc2C2CC2)cc2cc(NC(=O)[C@@H]3C[C@@H]3F)ncc12` (racemic) [Compound 46, (±)-cis-N-(8-amino-6-(4-cyclopropylpyridin-3-yl)-2,7-naphthyridin-3-yl)-2-fluorocyclopropanecarboxamide] is 0.00152 µM.
Same read-out and setting: next, `Cc1cc(C(N)=O)ccc1-c1cc2cc(NC(=O)[C@@H]3C[C@@H]3F)ncc2c(N)n1` (racemic) [Compound 48, (±)-4-(1-amino-6-((cis)-2-fluorocyclopropanecarboxamido)-2,7-naphthyridin-3-yl)-3-methylbenzamide]: 0.0103 µM.
For `CC1=CN(C)C(=O)Cc2nc(Nc3cc4cc(-c5cnccc5C)nc(N)c4cn3)ccc21` [Compound 418, 2-((8-amino-6-(4-methylpyridin-3-yl)-2,7-naphthyridin-3-yl)amino)-5,7-dimethyl-7,9-dihydro-8H-pyrido[2,3-d]azepin-8-one], the Ki on HPK1 [2] was 1.4 nM.
Same read-out and setting: next, `Cc1cccc(F)c1-c1cc2cc(Nc3cc4n(n3)CC(=O)N(C)CC4)ncc2c(N)n1` [Compound 426, 2-((8-amino-6-(2-fluoro-6-methylphenyl)-2,7-naphthyridin-3-yl)amino)-6-methyl-5,6-dihydro-4H-pyrazolo[1,5-d][1,4]diazepin-7(8H)-one]: 0.02 nM.
With `COCc1cccc(C)c1-c1cc2cc(NC(=O)[C@@H]3C[C@H]3c3cnn(C)c3)ncc2c(N)n1` [Compound 428, (1R,2R)-N-(8-amino-6-(2-(methoxymethyl)-6-methylphenyl)-2,7-naphthyridin-3-yl)-2-(1-methyl-1H-pyrazol-4-yl)cyclopropane-1-carboxamide], the Ki at HPK1 [2] was determined as 8 nM.
